Reference: patent US8901035B2, “Herbicidal compositions comprising 4-amino-3-chloro-5-fluoro-6-(4-chloro-2-fluoro-3-methoxyphenyl) pyridine-2-carboxylic acid or a derivative thereof and cellulose biosynthesis inhibitor herbicides” (Dow AgroSciences LLC, priority 2012, dated 2014)

Test system: Xanthium strumarium L. (XANST)
Assay: Pre-emergence soil-applied herbicidal mixtures for weed control (greenhouse)
Type: in vivo
Source text: Seeds or nutlets of the desired test plant species were planted in a soil matrix prepared by mixing a loam soil (e.g., 32 percent silt, 23 percent clay, and 45 percent sand, with a pH of about 6.5 and an organic matter content of about 1.9 percent) and calcareous grit in an 80 to 20 ratio. The soil matrix was contained in plastic pots with a volume of 1 quart and a surface area of 83.6 square centimeters (cm^2).
Treatments consisted of the benzyl ester of 4-amino-3-chloro-5-fluoro-6-(4-chloro-2-fluoro-3-methoxy-phenyl)pyridine-2-carboxylic acid (compound A) formulated as an SC (suspension concentrate) and various herbicidal components alone and in combination. Forms of compound A were applied on an acid equivalent basis.
Other herbicidal components were applied on an acid equivalent or active ingredient basis and included the cellulose biosynthesis inhibiting herbicides, isoxaben formulated as Gallery® 75DF and indaziflam formulated as Specticle® 20WSP.
Treatment requirements were calculated based upon the rates being tested, the concentration of active ingredient or acid equivalent in the formulation, and a 12 mL application volume at a rate of 187 L/ha.
For treatments comprised of formulated compounds, measured amounts of compounds were placed individually in 25 mL glass vials and diluted in a volume of 1.25% (v/v) Agri-Dex® crop oil concentrate (COC) to obtain 12× stock solutions. […] Application solutions were prepared by adding an appropriate amount of each stock solution (e.g., 1 mL) and diluted to the appropriate final concentrations with the addition of 10 mL of an aqueous mixture of 1.25% (v/v) COC so that the final spray solutions contained 1.25% (v/v) COC.
All stock solutions and applications solutions were visually inspected for compound compatibility prior to application. Spray solutions were applied to the soil with an overhead Mandel track sprayer equipped with a 8002E nozzles calibrated to deliver 187 L/ha over an application area of 0.503 m^2 at a spray height of 18 inches (46 cm) above average pot height. Control pots were sprayed in the same manner with the solvent blank.
The treated and control pots were placed in a greenhouse and top watered as needed. When required to ensure good germination and healthy plants, a fungicide treatment and/or other chemical or physical treatment was applied. The pots were maintained in a greenhouse with an approximate 14 hr. photoperiod which was maintained at about 29° C. during the day and 26° C. during the night. Nutrients (Peters® Excel 15-5-15 5-Ca 2-Mg) were applied in the irrigation solution as needed and water was added on a regular basis. Supplemental lighting was provided with overhead metal halide 1000-Watt lamps as necessary. After approximately 4 weeks, the condition of the test plants as compared with that of the untreated plants was determined visually and scored on a scale of 0 to 100 percent where 0 corresponds to no injury or growth inhibition and 100 corresponds to complete kill.
Colby's equation was used to determine the herbicidal effects expected from the mixtures (Colby, S. R. 1967. Calculation of the synergistic and antagonistic response of herbicide combinations. Weeds 15:20-22).
The following equation was used to calculate the expected activity of mixtures containing two active ingredients, A and B: Expected=A+B−(A×B/100)
A=observed efficacy of active ingredient A at the same concentration as used in the mixture.
B=observed efficacy of active ingredient B at the same concentration as used in the mixture.

Structure (SMILES): COc1c(Cl)ccc(-c2nc(C(=O)OCc3ccccc3)c(Cl)c(N)c2F)c1F [Compound A Benzyl Ester, benzyl ester of 4-amino-3-chloro-5-fluoro-6-(4-chloro-2-fluoro-3-methoxy-phenyl)pyridine-2-carboxylic acid]
- Visual Weed Control (%) - 28 DAA XANST Obs (Compound A Benzyl Ester 16 g ae/ha alone): 0%
- Visual Weed Control (%) - 28 DAA XANST Obs (Compound A Benzyl Ester 32 g ae/ha alone): 5%
